Experimental data taken from US11014933B2 (priority 2018, dated 2021).
Structures can show the parent of a compound that is named as a salt. Where two headings read alike, the source gives them in different places.

Assays:
DOR [1] = target: T1, DOR (Homo sapiens, UniProt P41143); assay: biochemical; assay type: binding; parameters: expressed in transfected cells; host or cells: CHO
MOR [2] = target: T2, MOR (Mus musculus, UniProt P42866); assay: Competition radioligand binding, MOR ([3H]naloxone); parameters: expressed in transfected cells; host or cells: CHO; settings: CHO cell membranes
T2 sequence (P42866 whole entry): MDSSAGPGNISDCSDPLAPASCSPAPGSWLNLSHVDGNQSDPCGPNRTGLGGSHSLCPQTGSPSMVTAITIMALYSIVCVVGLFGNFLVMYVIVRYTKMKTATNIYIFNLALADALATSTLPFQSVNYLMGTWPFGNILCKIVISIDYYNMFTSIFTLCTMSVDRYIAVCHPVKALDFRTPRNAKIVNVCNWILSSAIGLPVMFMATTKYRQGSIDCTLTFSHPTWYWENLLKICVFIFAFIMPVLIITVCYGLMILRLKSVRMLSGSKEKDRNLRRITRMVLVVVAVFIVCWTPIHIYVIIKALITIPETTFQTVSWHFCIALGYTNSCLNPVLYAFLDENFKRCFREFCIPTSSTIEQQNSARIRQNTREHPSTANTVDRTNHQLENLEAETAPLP

MOR [3] = target: T2, MOR; settings: for EC50: read-out: MOR 35S-GTP[γS] Binding EC50; for MOR 35S-GTP[γS] Binding % Emax of DAMGO: relative to 3 μM DAMGO
KOR [4] = target: T3, KOR (Homo sapiens, UniProt P41145); assay: biochemical; assay type: binding
T3 construct: expressed in transfected cells; host or cells: CHO
T3 sequence (P41145 whole entry): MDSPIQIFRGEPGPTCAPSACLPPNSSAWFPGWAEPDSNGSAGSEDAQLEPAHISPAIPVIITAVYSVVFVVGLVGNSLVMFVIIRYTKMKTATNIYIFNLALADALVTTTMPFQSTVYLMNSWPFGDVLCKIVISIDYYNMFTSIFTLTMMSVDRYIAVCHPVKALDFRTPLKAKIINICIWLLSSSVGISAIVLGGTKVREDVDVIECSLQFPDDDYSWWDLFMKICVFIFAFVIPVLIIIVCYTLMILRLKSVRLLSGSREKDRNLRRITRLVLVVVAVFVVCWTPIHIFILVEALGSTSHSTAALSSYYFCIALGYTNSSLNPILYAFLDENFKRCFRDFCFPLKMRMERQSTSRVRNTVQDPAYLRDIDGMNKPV

morphine-pelleted mice = assay: Withdrawal study in morphine-pelleted mice
Swiss Webster mice = assay: Tail immersion assay (agonism, and antagonism of morphine); assay type: in vivo, mouse; settings: for AD50 (antagonism of morphine antinociception): 95% confidence level in brackets; for % MPE of morphine (10 mg/kg) in the presence of test compound (antagonism): test compound 10 mg/kg s.c., 5 min before morphine
MOR [5] = target: T2, MOR; assay: biochemical
P-gp = assay: Caco-2 bidirectional transport assay; settings: human
Caco-2 monolayers [6] = assay: Caco-2 bidirectional transport assay
MOR [7] = target: T2, MOR; assay: Desensitization study: DAMGO-induced [35S]GTPγS binding after ligand pretreatment of mMOR-CHO cells; assay type: cell-based; parameters: expressed in transfected cells; host or cells: CHO
rat MOR = target: T4, rat MOR (Rattus norvegicus, UniProt P33535); assay type: cell-based
T4 construct: expressed in transfected cells; host or cells: Neuro2A murine neuroblastoma cells (clones H38 and H16)
T4 sequence (P33535 whole entry): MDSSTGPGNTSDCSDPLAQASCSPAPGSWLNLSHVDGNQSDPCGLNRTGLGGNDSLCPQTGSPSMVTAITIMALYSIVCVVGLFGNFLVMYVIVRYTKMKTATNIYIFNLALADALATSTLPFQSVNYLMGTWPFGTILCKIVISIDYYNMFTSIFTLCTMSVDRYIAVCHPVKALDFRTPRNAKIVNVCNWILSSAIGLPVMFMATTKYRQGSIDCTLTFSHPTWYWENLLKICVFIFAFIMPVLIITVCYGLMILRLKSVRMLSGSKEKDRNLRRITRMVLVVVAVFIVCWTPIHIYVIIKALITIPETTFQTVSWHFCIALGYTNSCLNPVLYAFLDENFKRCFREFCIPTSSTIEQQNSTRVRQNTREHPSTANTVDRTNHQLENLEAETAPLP

mouse μ opioid receptor = mouse μ opioid receptor (Mus musculus, UniProt P42866); assay: Calcium mobilization assay in mMOR-CHO cells; assay type: cell-based
mouse μ opioid receptor, sequence (P42866 whole entry): as the sequence (P42866 whole entry) above

C57BL/6J mice = assay: Warm-water tail-withdrawal test with cumulative morphine dosing; assay type: in vivo, mouse
MOR [8] = target: T2, MOR; settings: 24 h pretreatment (DAMGO, morphine 5 μM; nalbuphine, naltrexone 1 μM); previously published; cited from earlier work
MOR [9] = target: T2, MOR; parameters: expressed in transfected cells; host or cells: CHO; settings: read-out: Ki MOR; [3H]naloxone; values from reference 44a/57a; cited from earlier work
KOR [10] = target: T3, KOR; settings: values from reference 44a/57a; cited from earlier work
MOR [11] = target: T2, MOR; settings: values from reference 44a/57a, cited from earlier work
DOR [12] = target: T1, DOR; settings: values from reference 44a/57a; cited from earlier work
Caco-2 monolayers [13] = settings: related study, cited from earlier work
[14] = read-out: MOR 35S-GTP[γS] Binding % Emax of DAMGO, relative to 3 μM DAMGO

T1 sequence (P41143 whole entry): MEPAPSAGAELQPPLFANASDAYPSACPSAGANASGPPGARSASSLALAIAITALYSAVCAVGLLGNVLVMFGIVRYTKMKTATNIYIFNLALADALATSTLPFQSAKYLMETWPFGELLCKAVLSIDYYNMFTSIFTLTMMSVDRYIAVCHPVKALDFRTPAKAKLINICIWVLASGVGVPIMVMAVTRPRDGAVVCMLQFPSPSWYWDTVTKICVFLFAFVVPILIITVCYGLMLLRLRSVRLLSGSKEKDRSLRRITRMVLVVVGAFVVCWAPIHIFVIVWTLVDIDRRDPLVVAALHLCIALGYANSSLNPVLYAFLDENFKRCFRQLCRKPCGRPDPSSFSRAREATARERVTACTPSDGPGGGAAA

For “17-Cyclopropylmetyl-3,14β-dihydroxy-4,5α-epoxy-6β-[(3′-carboxyl-4′-pyridyl) acetamido]morphinan [Compound 5]”, the “Selectivity δ/μ” value (DOR [1]) was 73.2, the Ki (DOR [1]; read-out: Ki DOR) was 55.6 ± 6.02 nM and the Ki (MOR [2]) was 0.76 ± 0.08 nM. The EC50 (MOR [3]; MOR-CHO membranes) was 1.83 ± 0.18 nM, the “MOR 35S-GTP[γS] Binding % Emax of DAMGO” value (MOR [3]) was 29.27 ± 1.42% and the “Selectivity κ/μ” value (KOR [4]) was 3.2. It also gave a Ki (KOR [4]; read-out: Ki KOR) of 2.43 ± 0.19 nM.
For `O=C(N[C@@H]1CCC2(O)C3Cc4ccc(O)c5c4[C@@]2(CCN3CC2CC2)[C@H]1O5)c1ccnc(Cl)c1` (some centres unmarked) (as salt: hydrochloride), the melting point was greater than 250 °C.
`O=C(N[C@@H]1CCC2(O)C3Cc4ccc(O)c5c4[C@@]2(CCN3CC2CC2)[C@H]1O5)c1ccnc(Br)c1` (some centres unmarked) (as salt: hydrochloride) gave a melting point greater than 250 °C.
For `Cc1cc(C(=O)N[C@@H]2CCC3(O)C4Cc5ccc(O)c6c5[C@@]3(CCN4CC3CC3)[C@H]2O6)ccn1` (some centres unmarked) (as salt: hydrochloride), the melting point was 248 °C (dec.).
For `COc1cc(C(=O)N[C@@H]2CCC3(O)C4Cc5ccc(O)c6c5[C@@]3(CCN4CC3CC3)[C@H]2O6)ccn1` (some centres unmarked) (as salt: hydrochloride), the melting point was 244 to 248 °C (dec.).
In the case of `O=C(N[C@@H]1CC[C@@]2(O)[C@H]3Cc4ccc(O)c5c4[C@@]2(CCN3CC2CC2)[C@H]1O5)c1ccncc1F` [Compound 1], the “Wet dog shakes, jumps and paw tremors versus naloxone 1 mg/kg” value (morphine-pelleted mice; 10 mg/kg s.c., 20 min) is reported as “significantly fewer wet dog shakes, jumps, and paw tremors”, the “Jumps versus naloxone 1 mg/kg” value (morphine-pelleted mice; 50 mg/kg s.c.) is reported as “significantly fewer jumps” and the “Wet dog shakes and paw tremors versus naloxone 1 mg/kg” value (morphine-pelleted mice; 50 and 100 mg/kg s.c.) is reported as “not significantly different from those of naloxone”. For the same molecule, the “AD50 (antagonism of morphine antinociception)” value (Swiss Webster mice) was 2.82 (1.34-5.94) mg/kg, the “% MPE of morphine (10 mg/kg) in the presence of test compound (antagonism)” value (from here on “% MPE of morphine (10 mg/kg)”) (Swiss Webster mice; listed as 1 (NFP)) was “antagonized morphine's antinociception effect significantly” and the “% MPE of morphine (10 mg/kg)” value (Swiss Webster mice; listed as NFP) was 6.2±2.4%. The Emax (MOR [5]; read-out: Emax, stimulation of [35S]GTPγS binding (normalized to DAMGO), mMOR-CHO membranes, ligand alone, concentration-effect curve) was 34.9 ± 1.5%, the Emax (MOR [5]; [14]) was 35 ± 3.07% and the Emax (MOR [5]; read-out: Maximal inhibition (minimum) as % of maximal stimulation produced by DAMGO, in the presence of 0.3 μM DAMGO, mMOR-CHO membranes) was 37.7 ± 1.5%. For the same molecule, the Ki (DOR [1]) was 157 ± 7.81 nM, the efflux ratio at 2 h, 20 μM (P-gp; Caco-2, pH 7.4) was 7 ± 0.5 and the efflux ratio at 2 h, 20 μM (P-gp; Caco-2, pH 7.4, with elacridar 1 μM) was 1.3 ± 0.3. The P-gp substrate (Caco-2 monolayers [6]; Caco-2, with or without elacridar) was “may be a P-gp substrate”, the “Papp, B-A (efflux) compared with Papp, A-B (absorption)” value (Caco-2 monolayers [6]; NFP 20 μM, 37° C., 2 h) was “much higher” and the “Emax of DAMGO-stimulated [35S]GTPγS binding after pretreatment (net)” value (MOR [7]; NFP 1 μM, 24 h pretreatment of mMOR-CHO cells) was 156.20 ± 13.83 fmol/mg. The “Internalization of the MOR” value (rat MOR) was “did not”, the IC50 (mouse μ opioid receptor) was 76.1 ± 2.5 nM and the “EC50, Ca2+ signal (agonist mode)” value (mouse μ opioid receptor; mMOR-CHO cells transfected with Gαqi5, up to 3 μM) was “did not induce any apparent Ca^2+ signal”. The Ki (MOR [2]) was 0.36 ± 0.02 nM, the “Relative efficacy versus naltrexone” value (MOR [3]; mMOR-CHO membranes) was roughly 3 fold and the EC50 (MOR [3]; MOR-CHO membranes) was 1.2 ± 0.19 nM. The “Antinociception (% MPE) of morphine in NFP group relative to vehicle-treated group, Day 1” value (C57BL/6J mice; NFP 0.3 mg/kg s.c. pretreatment, 10 mg/kg cumulative morphine, p=0.0013) was “significantly less antinociception”, the “Antinociception (% MPE) of morphine in NFP group relative to Vehicle Group, Day 7” value (C57BL/6J mice; after five days of 10 mg/kg morphine + 0.3 mg/kg NFP, 32 mg/kg cumulative morphine, p=0.0138) was “significantly less antinociception” and the Ki (KOR [4]) was 4.8 ± 0.26 nM.
With `N#Cc1cnccc1C(=O)N[C@@H]1CC[C@@]2(O)[C@H]3Cc4ccc(O)c5c4[C@@]2(CCN3CC2CC2)[C@H]1O5` [Compound 2] the “Wet dog shakes and jumps versus naloxone 1 mg/kg” value (morphine-pelleted mice; 1 mg/kg s.c.) was “significantly fewer wet dog shakes and jumps”, the “% MPE of morphine (10 mg/kg)” value (Swiss Webster mice; listed as 2 (NYP)) was “antagonized morphine's antinociception effect significantly” and the “% MPE of morphine (10 mg/kg)” value (Swiss Webster mice; listed as NYP) was 7.8±5.4%. For the same molecule, the Emax (MOR [5]; [14]) was 26.1 ± 0.74%, the Ki (DOR [1]) was 46.3 ± 7.86 nM and the Ki (MOR [2]) was 0.87 ± 0.09 nM. For the same molecule, the EC50 (MOR [3]; MOR-CHO membranes) was 1.28 ± 0.2 nM and the Ki (KOR [4]) was 2.74 ± 0.47 nM.
With `O=C(Cc1ccncc1C(F)(F)F)N[C@@H]1CC[C@@]2(O)[C@H]3Cc4ccc(O)c5c4[C@@]2(CCN3CC2CC2)[C@H]1O5` [Compound 4, 17-Cyclopropylmetyl-3,14β-dihydroxy-4,5α-epoxy-6β-[(3′-trifluromethyl-4′-pyridyl)acetamido]morphinan] the “Selectivity δ/μ” value (DOR [1]) was 143.7, the Ki (DOR [1]; read-out: Ki DOR) was 61.8 ± 5 nM and the Ki (MOR [2]) was 0.43 ± 0.01 nM. The EC50 (MOR [3]; MOR-CHO membranes) was 1.38 ± 0.2 nM, the “MOR 35S-GTP[γS] Binding % Emax of DAMGO” value (MOR [3]) was 31.88 ± 3.39% and the “Selectivity κ/μ” value (KOR [4]) was 29.1. It also gave a Ki (KOR [4]; read-out: Ki KOR) of 12.5 ± 0.89 nM.
Work on `CC(C)Cc1cnccc1C(=O)N[C@@H]1CC[C@@]2(O)[C@H]3Cc4ccc(O)c5c4[C@@]2(CCN3CC2CC2)[C@H]1O5` [Compound 8] yielded an Emax (MOR [5]; [14]) of 27.3 ± 0.25%, a Ki (DOR [1]) of 149 ± 16 nM and a Ki (MOR [2]) of 7.2 ± 0.81 nM. For the same molecule, the “Ki MOR” value (MOR [2]) was “nanomolar binding affinity”, the “MOR 35S-GTP[γS] Binding EC50” value (MOR [3]; MOR-CHO membranes) was “lowest potency” and the EC50 (MOR [3]; MOR-CHO membranes) was 19.7 ± 2.37 nM. The Ki (KOR [4]) was 75.6 ± 3.87 nM.
Molecule `O=C(N[C@@H]1CC[C@@]2(O)[C@H]3Cc4ccc(O)c5c4[C@@]2(CCN3CC2CC2)[C@H]1O5)c1ccncc1C1CCCCC1` [Compound 10] has an Emax (MOR [5]; [14]) of 51.6 ± 3.73%, a Ki (DOR [1]) of 11.2 ± 1.91 nM and a Ki (MOR [2]) of 0.78 ± 0.09 nM. It also gave an EC50 (MOR [3]; MOR-CHO membranes) of 2.46 ± 0.3 nM and a Ki (KOR [4]) of 3.32 ± 0.54 nM.
With `O=C(N[C@@H]1CC[C@@]2(O)[C@H]3Cc4ccc(O)c5c4[C@@]2(CCN3CC2CC2)[C@H]1O5)c1ccncc1-c1ccccc1` [Compound 12] the Emax (MOR [5]; [14]) was 44.4 ± 3.12%, the Ki (DOR [1]) was 44.8 ± 3.7 nM and the Ki (MOR [2]) was 0.63 ± 0.05 nM. For the same molecule, the EC50 (MOR [3]; MOR-CHO membranes) was 1.46 ± 0.18 nM and the Ki (KOR [4]) was 3.42 ± 0.38 nM.
For `C[C@@H](NC(=O)[C@@H](N)Cc1ccc(O)cc1)C(=O)NCC(=O)N(C)[C@@H](Cc1ccccc1)C(=O)NCCO` [DAMGO, reference compound], the “Increase of DAMGO EC50 compared with vehicle treated group” value (MOR [7]; pretreated mMOR-CHO cells) is listed as roughly 4 fold and the “Emax of DAMGO-stimulated [35S]GTPγS binding after pretreatment (net)” value (MOR [8]) is listed as 121.62 ± 13.78 fmol/mg.
In the case of `Cc1cnccc1C(=O)N[C@@H]1CC[C@@]2(O)[C@H]3Cc4ccc(O)c5c4[C@@]2(CCN3CC2CC2)[C@H]1O5` [NMP, N-((4R,4aS,7R,7aR,12bS)-3-(cyclopropylmethyl)-4a,9-dihydroxy-2,3,4,4a,5,6,7,7a-octahydro-1H-4,12-methanobenzofuro[3,2-e]isoquinolin-7-yl)-3-methylisonicotinamide], the Ki (MOR [9]) is listed as 0.58 ± 0.25 nM, the “Selectivity κ/μ” value (KOR [10]) is listed as 166 and the EC50 (MOR [11]; read-out: MOR 35S-GTP[γS] Binding EC50) is listed as 1.52 ± 0.26 nM. The “MOR 35S-GTP[γS] Binding % Emax of DAMGO” value (MOR [11]) was 30.63 ± 0.55% and the “Selectivity δ/μ” value (DOR [12]) was 470.
In the case of `C[C@H]1O[C@@H](O[C@H]2[C@@H](O)C[C@H](O[C@H]3[C@@H](O)C[C@H](O[C@H]4CC[C@@]5(C)[C@H](CC[C@@H]6[C@@H]5C[C@@H](O)[C@]5(C)[C@@H](C7=CC(=O)OC7)CC[C@]65O)C4)O[C@@H]3C)O[C@@H]2C)C[C@H](O)[C@@H]1O` [digoxin], the PDR (Caco-2 monolayers [13]; after elacridar was added) is listed as 1.2 and the PDR (Caco-2 monolayers [13]; without elacridar) is listed as 5.1.
With `C=CCN1CC[C@]23c4c5ccc(O)c4O[C@H]2C(=O)CC[C@@]3(O)[C@H]1C5` [naloxone, reference compound] the “AD50 (antagonism of morphine antinociception)” value (Swiss Webster mice) was 0.05 mg/kg.
